Measured values as given in US10562848B2, “Inhibitors of TNF superfamily costimulatory interactions and methods for uses of the same” (UNIVERSITY OF MIAMI, priority 2015, dated 2020).

Tests used:
[1] = system: CD40L-induced NF-κB activation in CD40 sensor cells (HEK Blue); test: Inhibition of CD40L-induced NF-κB activation in CD40 sensor cells (HEK-Blue); type: cell-based, human; settings: for IC50: Homo sapiens, CD40L 20 ng/mL, 18 h
Description: Activities of the compounds of the disclosure were confirmed in cell-based assays. As a first example, TNF-R1 and CD40 expressing sensor cells (HEK-Blue; InvivoGen, San Diego, Calif.) were used as described in the literature (see Song et al., Br J Pharmacol 171:4955-4969 (2014) and Cechin et al., Steroids 85:36-43 (2014)).
Cells were maintained in DMEM at 80% confluence for each experiment. Cells were trypsinized and re-suspended in the same medium with 1% FBS and seeded on 96-well microtiter plates at a density of 1×10^5 cells/well in the absence and presence of various concentrations of compounds diluted in the same media. For ligand mediated stimulation, final concentrations of recombinant human TNFα (2 ng/mL) and CD40L (20 ng/mL) were maintained in the wells for this purpose. After 18-hour incubation at 37° C., 20 μL supernatant of each well were taken and added to another 96-well microtiter plate containing 180 μL/well of QUANTI-Blue (InvivoGen, CA). The level of SEAP was determined after 30-minute incubation at 37° C. by reading at 625 nm using a spectrophotometer. […] Data are average±SD (normalized to CD40L-activated cells alone) for n=4 independent experiments with duplicates for each condition.

[2] = system: CD40L-induced MHC-II expression in human THP-1 cells; test: cells; settings: for IC50: Homo sapiens, THP-1, 48 h, read-out: IC50, inhibition of CD40L-induced THP-1 activation
Method: As a further assessment, the ability of the compounds of the disclosure to inhibit the CD40L-induced activation of THP-1 cells, which can serve as surrogate dendritic cells, was evaluated using an assay as described previously (see Margolles-Clark et al, J Mol Med 87:1133-1143 (2009)).
THP-1 human myeloid cells obtained from American Type Culture Collection (ATCC; Manasses, Va.) were cultivated in RPMI media 1640 supplemented with 10% FBS, 100 U/mL penicillin, and streptomycin 100 μg/mL to a density of 1×10^6 cells/mL. Cells were centrifuged and cultured in the same medium without FBS for a period of 24 hours. Starved cells were placed in fresh medium without FBS and stimulated with 0.5 μg/mL of rhCD154 (MegaCD40L; Enzo Life Sciences), in the presence of various concentrations of test compounds. After 48 h, cells were labeled with biotin conjugated monoclonal anti-human CD40 antibody (clone LOB7/6) (LifeSpan BioSciences, Seattle, Wash.), detected with allophycocyanin-eFluor™ 780 streptavidin (eBioscience, San Diego, Calif.), and labeled with monoclonal anti-human HLA-DR antibody APC-Alexa Fluor® 750 (clone LN3) (eBioscience, San Diego, Calif.). All cultivations were carried out for 48 h at 37° C., 90% humidity, and 5% CO2. Stained THP-1 cells were analyzed using a BD LSR II Flow Cytometer (BD Biosciences, San Jose, Calif.). Cell surface markers were quantified in live cells only after gating out 4′,6-diamidino-2-phenylindole (DAPI) labeled cells. All experiments were repeated at least three times.
Data are average±SD in live (DAPI^−) cells from five independent experiments and were analyzed by […] one-way ANOVA followed by Dunnett's multiple comparison test, *p<0.05, **p<0.01, ****p<0.0001 vs. cells+huCD40L.

[3] = system: Balb/c skin grafts in C57BL/6 mice; test: Skin allograft survival model; type: in vivo, mouse; settings: CTLA4-Ig plus 21045 30 mg/kg daily s.c. in 20% HPβCD
Description: Full-thickness ear skins from donor mice (Balb/c, Jackson Laboratory; Bar Harbor, Me.) were transplanted onto the dorsal thorax of recipient mice (C57BL/6, Jackson Laboratory) by placing them on ˜1 cm diameter graft beds and securing with bandages.

Structure (SMILES)	inhibition of CD40L-induced NF-κB activation (in words) [1]	IC50 [1] [µM]	IC50 [2] [µM]	inhibition of CD40L-induced MHC-II expression in THP-1 cells (in words) [2]	mean survival time (MST) of skin grafts [3] [days]
O=C(Nc1ccc(-c2ccc(C(=O)Nc3cccc4cccc(S(=O)(=O)O)c34)cc2)cc1)c1ccc([N+](=O)[O-])cc1 [Compound 21041, 8-[(4′-[4-nitrobenzamido]biphenyl-4-yl-carbonyl)amino]naphthalene-1-sulfonic acid]	concentration-dependent inhibition	10	~10	concentration-dependent inhibition	–
COC(=O)c1ccc(C(=O)Nc2ccc(-c3ccc(C(=O)Nc4cccc5cccc(S(=O)(=O)O)c45)cc3)cc2)cc1 [Compound 21045]	concentration-dependent inhibition	17	–	concentration-dependent inhibition	15
O=C(Nc1ccc(-c2ccc(C(=O)Nc3ccc(C(=O)O)c4ccccc34)cc2)cc1)c1ccc([N+](=O)[O-])cc1 [Compound 25441]	concentration-dependent inhibition	9	~10	concentration-dependent inhibition	–
